Laboratory results: patent US20150133516A1, “Methods and Compositions for Treating ADHD” (priority 2013, published 2015)

Key:
[1] = system: spontaneously hypertensive rats (SHR); assay: delayed gratification response paradigm in SHR animal model of ADHD; type: in vivo, rat; conditions: 5, 10, 25 or 50 mg/kg over twenty-one days
Excerpt: In this study, spontaneously hypertensive rats (SHR) are used as an animal model for ADHD. The SHR animal model is described in Russell et al., 2000, Behavioral Brain Research, 117: 69-74; Russell, 2001, Metab. Brain Dis., 16: 143-149; and Sagvolden et al., 1992, Behav. Neural Biol., 58: 103-112. The study consists of two groups of rats: normal and SHR. Each group is further divided into two subgroups: placebo and AR08. The AR08 subgroup is further divided into four subgroups and each subgroup is administered 5, 10, 25, or 50 mg/kg of AR08. The AR08 is administered to the rats over a period of twenty-one days. The rats are from the normal and SHR groups are trained in the delayed gratification response paradigm as described in Charrier et al., 1996, Pharmacology and Biochemistry and Behavior, 54: 149-157. In this paradigm, rats learn to choose between five food pellets delivered after 30 seconds and one food pellet delivered after 5 seconds. Normal rats learn to choose the five food pellets delivered after 30 seconds at a higher frequency.

[2] = system: α2 adrenergic receptors; assay: alpha 2/alpha1 functional selectivity (in vitro functional potencies); type: biochemical
Experimental: (§1) The pharmacological activity and selectivity of these compounds can be determined using published test procedures. […] (See, e.g., The Alpha-2 Adrenergic Receptors, L. E. Limbird, ed., Humana Press, Clifton, N.J.) The following in vivo assays are typically conducted in rodents or other species. Central nervous system activity is determined by measuring locomotor activity as an index of sedation. (See, e.g., Spyraki, C. & H. Fibiger, “Clonidine-induced Sedation in Rats: Evidence for Mediation by Postsynaptic Alpha-2 Adrenoreceptors”, Journal of Neural Transmission, Vol. 54 (1982), pp. 153-163). Nasal decongestant activity is measured using rhinomanometry as an estimate of nasal airway resistance. […] Antiglaucoma activity is determined by measuring intraocular pressure. […] Antidiarrheal activity is determined by measuring the ability of the compounds to inhibit prostaglandin-induced diarrhea. […] Efficacy in treating irritable bowel syndrome is determined by measuring the ability of compounds to reduce the stress-induced increase in fecal output. […] Antiasthma activity is determined by measuring the effect of the compound on bronchoconstriction associated with pulmonary challenges such as inhaled antigens. […] Activity in cough is determined by measuring the number and latency of the cough response to respiratory challenges such as inhaled citric acid. […]

[3] = system: α2 receptors; assay: receptor binding affinities / selectivity against other molecular targets
Experimental: as §1

[4] = clinical; conditions: human, in vivo

Row | SMILES | amount of time required by SHR rats to choose five food pellets delivered after 30 seconds at a higher frequency [1] | alpha 2/alpha1 functional selectivity [2] | binding to targets other than α2 receptors [3] | selectivity for the α2 adrenergic receptors ([3]; versus a wide range of other molecular targets) | half-life [4]
1 | Cc1c(N=C2NCCN2)cc(C#N)c2[nH]cnc12 [AR08, N-(4,5-Dihydro-1H-imidazol-2-yl)-7-cyano-4-methyl-1H-benzimidazol-5-amine acetate] | reduced | – | – | – | –
2 | Cc1c(N=C2NCCN2)cc(C#N)c2[nH]cnc12 [Compound I, N-(4,5-Dihydro-1H-imidazol-2-yl)-7-cyano-4-methyl-1H-benzimidazol-5-amine] | – | about 70 fold | no relevant binding | highly selective | 26 to 40 h
